Assay results from patent US20230150951A1, “2,5- OR 2,6-DISUBSTITUTED HYDROQUINONE DERIVATIVES WITH AT LEAST ONE CARBOXY, SULFO OR AMIDO GROUP USEFUL AS MEDICAMENTS” (OM PHARMA SA, priority 2020, published 2023).
Entries after “also recorded” stand apart in the source; their conditions may differ. Each block holds one molecule with its values, some of them ahead of it.

Tested on: acute pancreatitis murine model
Test: Caerulein-induced acute pancreatitis murine model
Format: in vivo, Balb/c mice
Parameters: Serum IL33 level / Serum TGF-B level: unit not given here
Conditions: for Schmidt Score (H&E): induced + vehicle = 10, non-induced = 0; for Pancreas IL33 level / Pancreas MPO activity / Pancreas TGF-B level: terminal pancreatic tissue; for Serum IL33 level / Serum TGF-B level / Serum amylase level / Serum lipase level: terminal serum; for pancreatic tissue levels of IL33: first experiment, compared to the induced group
Description: Therapeutic efficacy of the compounds according to the present invention was assessed on an acute pancreatitis murine model. Tissue samples were obtained to allow post in-life analysis of pancreatitis parameters. Plasma samples were also obtained to assess animal exposure levels after administration of the compounds.
Animals: A total of 70 female Balb/c mice aged 8-10 weeks weighing approximately 20-25 g were used for the study (Charles River). After 7 days acclimatization, they were allocated into the different groups. […] Cages, bedding, and water were sanitized before use. Animals were provided with Corn-o-cobs enrichment bedding to provide environment enrichment and nesting material. […] The animal holding room were maintained as follows—room temperature at 20-24° C., humidity at 30-70% and a 12 h light/dark cycle used. Although animals used in this study were immuno-competent, preparation of dosing solutions and dosing/weighing of animals were carried out in a sterile biosafety cabinet.
Final formulation was in 5% DMSO, 10% Solutol, 10% PEG400, 75% 0.9% Saline and pH adjusted to 7 with 0.5M NaOH solution.
Final formulation is in 5% DMSO, 10% Solutol, 10% PEG400, 75% 0.9% Saline and pH adjusted to 7 with 0.5M NaOH solution. For per os (PO) dosing IVc-059a is formulated in water. Drug solutions were formulated on the day of dosing.
The purposes of this study were to assess efficacy compounds in an acute pancreatitis model (14 days), generate tissue samples to allow post in-life analysis of pancreatitis parameters and generate four plasma samples to assess animal exposure levels after first and last injection obtained from blood samples taken 1 h and 24 h after first and last injection.
Study Design: On the first study day animals were randomly be assigned to treatment groups, ensuring an equal spread of bodyweight. Mice (except negative control group) were treated with test compounds were given 5 minutes prior to caerulein dosing, followed by injection with caerulein at […] via intraperitoneal route (IP) daily during the study.
Treatment of test compounds were given 5 minutes prior to caerulein dosing.
Sampling and post in-life analyses: at times indicated above a whole blood sample (60 μl) were taken from the lateral tail vein into tubes coated with K2-EDTA. Plasma samples were prepared and stored frozen at −20° C. Plasma samples were sent to client bioanalysis provider Eurofins (FR) for quantification of compound.
Terminal Sampling: Prior to termination animals were weighed. Terminal study animals were culled via CO2 inhalation. A terminal blood sample was taken via cardiac puncture and plasma prepared. Lipase and Amylase activities were measured via ELISA using commercially available ELISA kits. Remaining plasma was stored for future cytokine analyses. Pancreas tissue was resected and weighed, and a section ([…]) snap frozen and analysed for quantification of compound in pancreas sample. A section ([…]) was processed for measurement of MPO activity, IL-33 and TGF-B levels via ELISA. The remainder was fixed in formalin and embedded in paraffin wax. H&E staining was carried out and section assessed using Schmidts standard scoring system, examining: edema, inflammatory infiltration, parenchymal necrosis, haemorrhage. Massons' Trichrome staining was carried out and area covered by fibrotic tissue quantified digitally using QuPath software. Terminal serum samples was used to assess blood chemistry using an IdeXX CHEM15 and LYTE4 clip (4 animals per treatment group).
Histopathology assessment of pancreatic injury based on 4 criteria: Oedema, Inflammatory infiltration, Parenchymal necrosis, Haemorrhage and scored as described below.
Schmidt score is the evaluation of the efficacy of the compounds based on the four histopathology criteria as described in the table below.

[1] = second experiment, IV, 15 mg/kg, Pirfenidone 100 mg/kg
[2] = 1st experiment, caerulein induced, 15 mg/kg IV, Ib-010a and IVc-059a 150 mg/kg PO, Pirfenidone 40 mg/kg IV
[3] = 1st experiment, 15 mg/kg IV, Ib-010a and IVc-059a 150 mg/kg PO, Pirfenidone 40 mg/kg IV

SMILES: O=C(O)c1cc(NC(=O)c2cc(O)cc(C(=O)Nc3ccc(O)c(C(=O)O)c3)c2O)ccc1O [IIc-007a, 5-(3-(3-carboxy-4-hydroxyphenylaminocarbonyl)-2,5-dihydroxybenzamido)-2-hydroxy benzoic acid]
Amylase [1]: 45.325 mU/mL
IL-33 [1]: 340 ± 211 ng/mL
Lipase [1]: 6.481 mU/mL
MPO [1]: 2.74 ± 0.76 U/mg
Schmidt Score [1]: 8.3 ± 1.6
TGF-B [1]: 500 ± 195 ng/mL
Trichome staining (Fibrosis % area) [1]: 1.821 ± 1.12 % area

Mean terminal BW (% of initial) [2]: 89.1 % of initial
SMILES: O=C(O)c1cc(O)c(C(=O)Nc2ccccc2-c2nnn[nH]2)cc1O [Ia-001a-Tz, 4-(2-(1H-tetrazol-5-yl)phenyl-aminocarbonyl)-2,5-dihydroxybenzoic acid]
Mean terminal pancreas weight [2]: 0.084 g
Schmidt Score (H&E) [2]: 5.9
Pancreas IL33 level [3]: 154 ± 49
Pancreas MPO activity [3]: 2.68
Pancreas TGF-B level [3]: 507 ± 289
Serum IL33 level [3]: 37.02
Serum TGF-B level [3]: 8.69
Serum amylase level [3]: 35.35
Serum lipase level [3]: 8.57
pancreatic tissue levels of IL33 (IV): significant decrease

Mean terminal BW (% of initial) [2]: 90.3 % of initial
SMILES: O=C(O)c1cc(O)c(C(=O)Nc2ccccc2C(=O)O)cc1O [Ia-001a, 4-(2-carboxyphenylaminocarbonyl)-2,5-dihydroxybenzoic acid]
Acinar cell necrosis (group mean score) [2]: 0.9
Haemorrhage (group mean score) [2]: 1.1
Interstitial oedema (group mean score) [2]: 1.3
Leukocyte infiltration (group mean score) [2]: 3.0
Mean terminal pancreas weight [2]: 0.083 g
Pancreas histopathology observations (H&E) [2]: Oedema observed throughout pancreas; also recorded: Haemorrhage observed; also recorded: Mild acinar cell less necrosis observed; also recorded: Leukocyte infiltration throughout; also recorded: Abnormal islet morphology observed; also recorded: Disruption to the basophilic region
Schmidt Score (H&E) [2]: 6.3
Pancreas IL33 level [3]: 330 ± 162
Pancreas MPO activity [3]: 3.76
Pancreas TGF-B level [3]: 592 ± 358
Serum IL33 level [3]: 39.52
Serum TGF-B level [3]: 8.69
Serum amylase level [3]: 34.07
Serum lipase level [3]: 6.72
pancreatic tissue levels of IL33 (IV): significant decrease
